According to US9725449B2, “Tricyclic compounds as anticancer agents” (BRISTOL-MYERS SQUIBB COMPANY, priority 2015, dated 2017):

Target: BRD4 (Homo sapiens, UniProt O60885)
Test: Time resolved fluorescence resonance energy transfer (TR-FRET) binding assay, bromodomain BRD4
Conditions: one of the FRET assays described; read-out: FRET BRD4 IC50

Row | Structure (SMILES) | IC50 [nM]
1 | [2H]C([2H])([2H])c1nnn(C)c1-c1cnc2c3c(OC)ncc(C(C)(C)O)c3n(C(c3ccccc3)C3CCC(F)(F)CC3)c2c1 (single isomer, unassigned) [Example 282, 2-{8-[(4,4-Difluorocyclohexyl)(phenyl)methyl]-13-methoxy-5-[4-(^2H3)methyl-1-methyl-1H-1,2,3-triazol-5-yl]-3,8,12-triazatricyclo[7.4.0.0^2,^7]trideca-1(9),2,4,6,10,12-hexaen-10-yl}propan-2-ol] | < 1
2 | Cc1nnn(C)c1-c1cnc2c3ccc(NS(C)(=O)=O)nc3n([C@H](c3ccccc3F)C3CCOCC3)c2c1 [Example 240, N-[5-(Dimethyl-1H-1,2,3-triazol-5-yl)-8-[(S)-(2-fluorophenyl)(oxan-4-yl)methyl]-3,8,10-triazatricyclo[7.4.0.0^2,^7]trideca-1(13),2(7),3,5,9,11-hexaen-11-yl]methanesulfonamide] | < 10
3 | [2H]C([2H])([2H])c1nnn(C)c1-c1cnc2c3c(NCC(F)(F)F)cncc3n([C@H](c3ccccc3)C3CCOCC3)c2c1 [Example 302, 5-[4-(^2H3)Methyl-1-methyl-1H-1,2,3-triazol-5-yl]-8-[(S)-oxan-4-yl(phenyl)methyl]-N-(2,2,2-trifluoroethyl)-3,8,11-triazatricyclo[7.4.0.0^2,^7]trideca-1(9),2(7),3,5,10,12-hexaen-13-amine] | < 1
4 | [2H]C([2H])([2H])c1nnn(C)c1-c1cnc2c3cnc(S(C)(=O)=O)cc3n([C@H](c3ccccc3F)C3CCOCC3)c2c1 [Example 245, 8-[(S)-(2-Fluorophenyl)(oxan-4-yl)methyl]-11-methanesulfonyl-5-[4-(^2H3)methyl-1-methyl-1H-1,2,3-triazol-5-yl]-3,8,12-triazatricyclo[7.4.0.0^2,^7]trideca-1(13),2(7),3,5,9,11-hexaene] | < 10
5 | [2H]C([2H])([2H])C(O)(c1cc2c(cn1)c1ncc(-c3c(C)noc3C)cc1n2[C@H](c1ccc(F)cc1)C1CCOCC1)C([2H])([2H])[2H] [Example 224, 2-[5-(Dimethyl-1,2-oxazol-4-yl)-8-[(S)-(4-fluorophenyl)(oxan-4-yl)methyl]-3,8,12-triazatricyclo[7.4.0.0^2,^7]trideca-1(13),2(7),3,5,9,11-hexaen-11-yl](^2H6)propan-2-ol] | < 10
6 | Cc1nnn(C)c1-c1cnc2c3ccc(C(C)O)nc3n([C@H](c3ccccc3)C3CCOCC3)c2c1 (stereo partly drawn) [Example 173, 1-[5-(Dimethyl-1H-1,2,3-triazol-5-yl)-8-[(S)-oxan-4-yl(phenyl)methyl]-3,8,10-triazatricyclo[7.4.0.0^2,^7]trideca-1(9),2(7),3,5,10,12-hexaen-11-yl]ethan-1-ol] | < 10
7 | Cc1noc(C)c1-c1cnc2c3cc(C(C)(C)O)cnc3n([C@H](c3ccccc3)C3CCOCC3)c2c1 [Example 351, 2-[5-(Dimethyl-1,2-oxazol-4-yl)-8-[(S)-oxan-4-yl(phenyl)methyl]-3,8,10-triazatricyclo[7.4.0.0^2,^7]trideca-1(13),2(7),3,5,9,11-hexaen-12-yl]propan-2-ol] | < 1500
8 | [2H]C([2H])([2H])c1nnn(C)c1-c1cnc2c3c(N[C@@H](C)C4CC4)ncc(S(C)(=O)=O)c3n([C@H](c3ccccc3)C3CCOCC3)c2c1 [Example 113, N-[(1S)-1-Cyclopropylethyl]-10-methanesulfonyl-5-[4-(^2H3)methyl-1-methyl-1H-1,2,3-triazol-5-yl]-8-[(S)-oxan-4-yl(phenyl)methyl]-3,8,12-triazatricyclo[7.4.0.0^2,^7]trideca-1(13),2(7),3,5,9,11-hexaen-13-amine] | < 1
9 | Cc1nnn(C)c1-c1cnc2c3c(S(C)(=O)=O)ncc(Cl)c3n([C@H](c3ccccc3)C3CCOCC3)c2c1 [Example 42, 10-Chloro-5-(dimethyl-1H-1,2,3-triazol-5-yl)-13-methanesulfonyl-8-[(S)-oxan-4-yl(phenyl)methyl]-3,8,12-triazatricyclo[7.4.0.0^2,^7]trideca-1(13),2(7),3,5,9,11-hexaene] | < 10
10 | Cc1nnn(C)c1-c1cnc2c3ccc(S(C)(=O)=O)nc3n([C@H](c3ccccc3)C3CCOCC3)c2c1 [Example 145, 5-(Dimethyl-1H-1,2,3-triazol-5-yl)-11-methanesulfonyl-8-[(S)-oxan-4-yl(phenyl)methyl]-3,8,10-triazatricyclo[7.4.0.0^2,^7]trideca-1(13),2(7),3,5,9,11-hexaene] | < 10
11 | Cc1nnn(C)c1-c1cnc2c3ccc(S(=O)(=O)N4CCN(C)CC4)nc3n([C@H](c3ccccc3)C3CCOCC3)c2c1 [Example 198, 5-(Dimethyl-1H-1,2,3-triazol-5-yl)-11-[(4-methylpiperazin-1-yl)sulfonyl]-8-[(S)-oxan-4-yl(phenyl)methyl]-3,8,10-triazatricyclo[7.4.0.0^2,^7]trideca-1(9),2(7),3,5,10,12-hexaene] | < 10
12 | [2H]C([2H])([2H])c1nnn(C)c1-c1cnc2c3ccc(N(C)C)nc3n([C@H](c3ccccc3F)C3CCOCC3)c2c1 [Example 238, 8-[(S)-(2-Fluorophenyl)(oxan-4-yl)methyl]-N,N-dimethyl-5-[4-(^2H3)methyl-1-methyl-1H-1,2,3-triazol-5-yl]-3,8,10-triazatricyclo[7.4.0.0^2,^7]trideca-1(13),2(7),3,5,9,11-hexaen-11-amine] | < 10
13 | [2H]C([2H])([2H])c1nnn(C)c1-c1cnc2c3c(OCC4CC4)ncc(S(C)(=O)=O)c3n([C@H](c3ccccc3)C3CCC(F)(F)CC3)c2c1 [Example 94, 13-(Cyclopropylmethoxy)-8-[(S)-(4,4-difluorocyclohexyl)(phenyl)methyl]-10-methanesulfonyl-5-[4-(^2H3)methyl-1-methyl-1H-1,2,3-triazol-5-yl]-3,8,12-triazatricyclo[7.4.0.0^2,^7]trideca-1(13),2(7),3,5,9,11-hexaene] | < 10
14 | Cc1nnn(C)c1-c1cnc2c3ccc([S+](C)[O-])nc3n([C@H](c3ccccc3)C3CCOCC3)c2c1 (stereo partly drawn) [Example 200, 5-(Dimethyl-1H-1,2,3-triazol-5-yl)-11-methanesulfinyl-8-[(S)-oxan-4-yl(phenyl)methyl]-3,8,10-triazatricyclo[7.4.0.0^2,^7]trideca-1(9),2(7),3,5,10,12-hexaene] | < 10
15 | CC(=O)c1cc2c(cn1)c1ncc(-c3c(C)nnn3C)cc1n2[C@H](c1ccc(F)cc1)C1CCOCC1 [Example 337] | < 10
16 | Cc1nnn(C)c1-c1ccc2c3ncc(C(C)(C)O)cc3n([C@@H](c3ccccc3)C3CCOCC3)c2n1 [Example 378, 2-[11-(Dimethyl-1H-1,2,3-triazol-5-yl)-8-[(R)-oxan-4-yl(phenyl)methyl]-3,8,10-triazatricyclo[7.4.0.0^2,^7]trideca-1(9),2(7),3,5,10,12-hexaen-5-yl]propan-2-ol] | < 10
17 | Cc1noc(C)c1-c1cnc2c3cnc(Cl)cc3n([C@H](c3ccc(F)cc3)C3CCOCC3)c2c1 [Example 326] | < 10
18 | COc1ccc(CNc2ccc3c4ncc(-c5c(C)nnn5C)cc4n([C@H](c4ccccc4)C4CCOCC4)c3n2)c(OC)c1 [Example 187, N-[(2,4-Dimethoxyphenyl)methyl]-5-(dimethyl-1H-1,2,3-triazol-5-yl)-8-[(S)-oxan-4-yl(phenyl)methyl]-3,8,10-triazatricyclo[7.4.0.0^2,^7]trideca-1(9),2(7),3,5,10,12-hexaen-11-amine] | < 10
19 | Cc1nnn(C)c1-c1cnc2c3ccc(NC(=O)C4CC4)nc3n([C@H](c3ccccc3F)C3CCOCC3)c2c1 [Example 276, N-[5-(Dimethyl-1H-1,2,3-triazol-5-yl)-8-[(S)-(2-fluorophenyl)(oxan-4-yl)methyl]-3,8,10-triazatricyclo[7.4.0.0^2,^7]trideca-1(13),2(7),3,5,9,11-hexaen-11-yl]cyclopropanecarboxamide] | < 10
20 | [2H]C([2H])([2H])c1nnn(C)c1-c1cnc2c3cnc(-c4c(C([2H])([2H])[2H])nnn4C)cc3n([C@H](c3ccc(F)cc3)C3CCOCC3)c2c1 [Example 160, 8-[(S)-(4-Fluorophenyl)(oxan-4-yl)methyl]-5,11-bis[4-(^2H3)methyl-1-methyl-1H-1,2,3-triazol-5-yl]-3,8,12-triazatricyclo[7.4.0.0^2,^7]trideca-1(13),2(7),3,5,9,11-hexaene] | < 10
21 | [2H]C([2H])([2H])c1nnn(C)c1-c1cnc2c3c(OCC(F)(F)F)cncc3n([C@H](c3ccccc3)C3CCOCC3)c2c1 [Example 301, 5-[4-(^2H3)Methyl-1-methyl-1H-1,2,3-triazol-5-yl]-8-[(S)-oxan-4-yl(phenyl)methyl]-13-(2,2,2-trifluoroethoxy)-3,8,11-triazatricyclo[7.4.0.0^2,^7]trideca-1(9),2(7),3,5,10,12-hexaene] | < 1
22 | [2H]C([2H])([2H])c1nnn(C)c1-c1cnc2c3ccc(C4=CCSCC4)nc3n([C@H](c3ccccc3)C3CCOCC3)c2c1 [Example 203, 11-(3,6-Dihydro-2H-thiopyran-4-yl)-5-[4-(^2H3)methyl-1-methyl-1H-1,2,3-triazol-5-yl]-8-[(S)-oxan-4-yl(phenyl)methyl]-3,8,10-triazatricyclo[7.4.0.0^2,^7]trideca-1(9),2(7),3,5,10,12-hexaene] | < 10
23 | Cc1nnn(C)c1-c1cnc2c3ccc(N4CCC(S(C)(=O)=O)CC4)nc3n([C@H](c3ccccc3)C3CCOCC3)c2c1 [Example 192, 5-(Dimethyl-1H-1,2,3-triazol-5-yl)-11-(4-methanesulfonylpiperidin-1-yl)-8-[(S)-oxan-4-yl(phenyl)methyl]-3,8,10-triazatricyclo[7.4.0.0^2,^7]trideca-1(9),2(7),3,5,10,12-hexaene] | < 1
24 | [2H]C([2H])([2H])c1nnn(C)c1-c1cnc2c3ccncc3n([C@H](c3ccccc3)C3CCOCC3)c2c1 [Example 299, 5-[4-(^2H3)Methyl-1-methyl-1H-1,2,3-triazol-5-yl]-8-[(S)-oxan-4-yl(phenyl)methyl]-3,8,11-triazatricyclo[7.4.0.0^2,^7]trideca-1(9),2(7),3,5,10,12-hexaene] | < 1
25 | Cc1nnn(C)c1-c1cnc2c3ccc(NC(=O)OC(C)C)nc3n([C@H](c3ccccc3)C3CCOCC3)c2c1 [Example 206, Propan-2-yl N-[5-(dimethyl-1H-1,2,3-triazol-5-yl)-8-[(S)-oxan-4-yl(phenyl)methyl]-3,8,10-triazatricyclo[7.4.0.0^2,^7]trideca-1(9),2(7),3,5,10,12-hexaen-11-yl]carbamate] | < 10
